Here are results for three compounds from ChEMBL document CHEMBL5724806, “Unraveling interindividual differences and functional consequences of gut microbial metabolism of immunosuppressants” (2024).

Structures are written as SMILES.

Holding throughout (type): ADME
The nature of series [1]: The drug is tested on the gut metagenome community of T-05 with ENA study accession number: PRJEB31790 for biotransformation under microaerobic condition. The drug concentrations were measured over 7 timepoints collected between 0 and 12 hours of incubation by liquid-chromatography-coupled mass spectrometry (LC–MS). The arrangement: dose 5 uM, timepoint 0, 0.75, 1.5, 3, 6, 9, 12 hours. To be noted: 5 µM.

Series [2] can be described thus: The drug is tested on the gut metagenome community of P-03 with ENA study accession number: PRJEB31790 for biotransformation under anaerobic condition. The drug concentrations were measured over 7 timepoints collected between 0 and 12 hours of incubation by liquid-chromatography-coupled mass spectrometry (LC–MS). The following applies: 5 µM. The arrangement: dose 5 uM, timepoint 0, 0.75, 1.5, 3, 6, 9, 12 hours.

Series [3] can be described thus: The drug is tested on Bacteroides ovatus strain: ATCC 8483 for biotransformation under anaerobic condition. The drug concentrations were measured over 6 timepoints collected between 0 and 12 hours of incubation by liquid-chromatography-coupled mass spectrometry (LC–MS). Further details: dose 5 uM, timepoint 0, 1.5, 3, 6, 9, 12 hours. The following applies: 5 µM.

A short description of series [4]: The drug is tested on Bacteroides fragilis strain: DSM2151 for biotransformation under anaerobic condition. The drug concentrations were measured over 6 timepoints collected between 0 and 12 hours of incubation by liquid-chromatography-coupled mass spectrometry (LC–MS). The arrangement: dose 5 uM, timepoint 0, 1.5, 3, 6, 9, 12 hours. To be noted: 5 µM.
Series [5] is described as follows: The drug is tested on the gut metagenome community of T-05 with ENA study accession number: PRJEB31790 for biotransformation under anaerobic condition. The drug concentrations were measured over 7 timepoints collected between 0 and 12 hours of incubation by liquid-chromatography-coupled mass spectrometry (LC–MS). To be noted: 5 µM. Further details: dose 5 uM, timepoint 0, 0.75, 1.5, 3, 6, 9, 12 hours.

Series [6] in a line: The drug is tested on Eubacterium rectale strain: DSM17629 for biotransformation under anaerobic condition. The drug concentrations were measured over 6 timepoints collected between 0 and 12 hours of incubation by liquid-chromatography-coupled mass spectrometry (LC–MS). The arrangement: dose 5 uM, timepoint 0, 1.5, 3, 6, 9, 12 hours. To be noted: agathobacter rectalis, 5 µM.

Series [7] in a line: The drug is tested on Odoribacter splanchnicus strain: DSM20712 for biotransformation under anaerobic condition. The drug concentrations were measured over 6 timepoints collected between 0 and 12 hours of incubation by liquid-chromatography-coupled mass spectrometry (LC–MS). The following applies: 5 µM. Further details: dose 5 uM, timepoint 0, 1.5, 3, 6, 9, 12 hours.
The nature of series [8]: The drug is tested on the gut metagenome community of P-02 with ENA study accession number: PRJEB31790 for biotransformation under anaerobic condition. The drug concentrations were measured over 7 timepoints collected between 0 and 12 hours of incubation by liquid-chromatography-coupled mass spectrometry (LC–MS). Further details: dose 5 uM, timepoint 0, 0.75, 1.5, 3, 6, 9, 12 hours. To be noted: 5 µM.

Series [9] can be described thus: The drug is tested on Eubacterium hallii strain: DSM3353 for biotransformation under anaerobic condition. The drug concentrations were measured over 6 timepoints collected between 0 and 12 hours of incubation by liquid-chromatography-coupled mass spectrometry (LC–MS). The following applies: anaerobutyricum hallii, 5 µM. The arrangement: dose 5 uM, timepoint 0, 1.5, 3, 6, 9, 12 hours.

Series [10] is described as follows: The drug is tested on Enterococcus faecalis strain: ATCC29212 for biotransformation under anaerobic condition. The drug concentrations were measured over 6 timepoints collected between 0 and 12 hours of incubation by liquid-chromatography-coupled mass spectrometry (LC–MS). The arrangement: dose 5 uM, timepoint 0, 1.5, 3, 6, 9, 12 hours. To be noted: 5 µM.
Series [11] in a line: The drug is tested on the gut metagenome community of A-06 with ENA study accession number: PRJEB31790 for biotransformation under microaerobic condition. The drug concentrations were measured over 7 timepoints collected between 0 and 12 hours of incubation by liquid-chromatography-coupled mass spectrometry (LC–MS). To be noted: 5 µM. The arrangement: dose 5 uM, timepoint 0, 0.75, 1.5, 3, 6, 9, 12 hours.

A short description of series [12]: The drug is tested on Lactobacillus ruminis strain: ATCC25644 for biotransformation under anaerobic condition. The drug concentrations were measured over 6 timepoints collected between 0 and 12 hours of incubation by liquid-chromatography-coupled mass spectrometry (LC–MS). The arrangement: dose 5 uM, timepoint 0, 1.5, 3, 6, 9, 12 hours. To be noted: ligilactobacillus ruminis, 5 µM.

A short description of series [13]: The drug is tested on the gut metagenome community of A-08 with ENA study accession number: PRJEB31790 for biotransformation under anaerobic condition. The drug concentrations were measured over 7 timepoints collected between 0 and 12 hours of incubation by liquid-chromatography-coupled mass spectrometry (LC–MS). The arrangement: dose 5 uM, timepoint 0, 0.75, 1.5, 3, 6, 9, 12 hours. The following applies: 5 µM.

The nature of series [14]: The drug is tested on Bifidobacterium longum strain: DSM20088 for biotransformation under anaerobic condition. The drug concentrations were measured over 6 timepoints collected between 0 and 12 hours of incubation by liquid-chromatography-coupled mass spectrometry (LC–MS). To be noted: 5 µM. The arrangement: dose 5 uM, timepoint 0, 1.5, 3, 6, 9, 12 hours.
Series [15] in a line: The drug is tested on Eubacterium eligens strain: DSM3376 for biotransformation under anaerobic condition. The drug concentrations were measured over 6 timepoints collected between 0 and 12 hours of incubation by liquid-chromatography-coupled mass spectrometry (LC–MS). Further details: dose 5 uM, timepoint 0, 1.5, 3, 6, 9, 12 hours. The following applies: lachnospira eligens, 5 µM.

The nature of series [16]: The drug is tested on the gut metagenome community of A-08 with ENA study accession number: PRJEB31790 for biotransformation under microaerobic condition. The drug concentrations were measured over 7 timepoints collected between 0 and 12 hours of incubation by liquid-chromatography-coupled mass spectrometry (LC–MS). The following applies: 5 µM. The arrangement: dose 5 uM, timepoint 0, 0.75, 1.5, 3, 6, 9, 12 hours.

Series [17] can be described thus: The drug is tested on Lactobacillus ruminis strain: ATCC25644 for biotransformation under microaerobic condition. The drug concentrations were measured over 6 timepoints collected between 0 and 12 hours of incubation by liquid-chromatography-coupled mass spectrometry (LC–MS). The arrangement: dose 5 uM, timepoint 0, 1.5, 3, 6, 9, 12 hours. To be noted: ligilactobacillus ruminis, 5 µM.

Series [18] can be described thus: The drug is tested on the gut metagenome community of A-03 with ENA study accession number: PRJEB31790 for biotransformation under microaerobic condition. The drug concentrations were measured over 7 timepoints collected between 0 and 12 hours of incubation by liquid-chromatography-coupled mass spectrometry (LC–MS). The arrangement: dose 5 uM, timepoint 0, 0.75, 1.5, 3, 6, 9, 12 hours. To be noted: 5 µM.

A short description of series [19]: The drug is tested on Bacteroides vulgatus strain: DSM1447 for biotransformation under anaerobic condition. The drug concentrations were measured over 6 timepoints collected between 0 and 12 hours of incubation by liquid-chromatography-coupled mass spectrometry (LC–MS). Further details: dose 5 uM, timepoint 0, 1.5, 3, 6, 9, 12 hours. To be noted: phocaeicola vulgatus, 5 µM.

The nature of series [20]: The drug is tested on Alloscardovia omnicolens strain: DSM21503 for biotransformation under microaerobic condition. The drug concentrations were measured over 6 timepoints collected between 0 and 12 hours of incubation by liquid-chromatography-coupled mass spectrometry (LC–MS). The arrangement: dose 5 uM, timepoint 0, 1.5, 3, 6, 9, 12 hours. The following applies: 5 µM.

Series [21] can be described thus: The drug is tested on Alloscardovia omnicolens strain: DSM21503 for biotransformation under anaerobic condition. The drug concentrations were measured over 6 timepoints collected between 0 and 12 hours of incubation by liquid-chromatography-coupled mass spectrometry (LC–MS). The arrangement: dose 5 uM, timepoint 0, 1.5, 3, 6, 9, 12 hours. The following applies: 5 µM.

Series [22] in a line: The drug is tested on Bacteroides uniformis strain: DSM6597 for biotransformation under anaerobic condition. The drug concentrations were measured over 6 timepoints collected between 0 and 12 hours of incubation by liquid-chromatography-coupled mass spectrometry (LC–MS). To be noted: 5 µM. The arrangement: dose 5 uM, timepoint 0, 1.5, 3, 6, 9, 12 hours.
The nature of series [23]: The drug is tested on Enterococcus faecalis strain: ATCC29212 for biotransformation under microaerobic condition. The drug concentrations were measured over 6 timepoints collected between 0 and 12 hours of incubation by liquid-chromatography-coupled mass spectrometry (LC–MS). The arrangement: dose 5 uM, timepoint 0, 1.5, 3, 6, 9, 12 hours. To be noted: 5 µM.
Series [24] can be described thus: The drug is tested on Coprococcus comes strain: ATCC27758 for biotransformation under anaerobic condition. The drug concentrations were measured over 6 timepoints collected between 0 and 12 hours of incubation by liquid-chromatography-coupled mass spectrometry (LC–MS). The arrangement: dose 5 uM, timepoint 0, 1.5, 3, 6, 9, 12 hours. To be noted: 5 µM.

In the case of `COc1c(C)c2c(c(O)c1C/C=C(\C)CCC(=O)O)C(=O)OC2` [MYCOPHENOLIC ACID], the “Bacterial Biotransformation” value in [1] is “Compound metabolized”; in series [2], “Compound NOT metabolized”; in series [3] it was “Compound NOT metabolized”; in [4], “Compound NOT metabolized”; in series [5], “Compound metabolized”; in [6], “Compound NOT metabolized”. The “Bacterial Biotransformation” value in [7], in series [8], in series [9], in series [10], in series [11] and in series [12] was “Compound NOT metabolized” in each case. In addition, the “Bacterial Biotransformation” value in series [13], in series [14], in series [15], in series [16], in [17] and in [18] was “Compound NOT metabolized” each time. The “Bacterial Biotransformation” value in series [19], in series [20], in series [21], in series [22], in [23] and in series [24] was “Compound NOT metabolized” throughout.

On to `C[C@]12C=CC(=O)C=C1CC[C@@H]1[C@@H]2[C@@H](O)C[C@@]2(C)[C@H]1CC[C@]2(O)C(=O)CO` [PREDNISOLONE], for which the “Bacterial Biotransformation” value in series [1] is “Compound NOT metabolized”; in [2] it was “Compound metabolized”; in [3] it was “Compound NOT metabolized”; in series [4] it was “Compound NOT metabolized”; in series [5], “Compound NOT metabolized”; in series [6] it was “Compound NOT metabolized”. Moreover, the “Bacterial Biotransformation” value in [7] is “Compound NOT metabolized”; in series [8], “Compound metabolized”; in series [9], “Compound NOT metabolized”; in series [10], “Compound NOT metabolized”; in series [11] it was “Compound metabolized”; in series [12], “Compound NOT metabolized”. The “Bacterial Biotransformation” value in [13] is on record as “Compound metabolized”; in series [14], “Compound NOT metabolized”; in series [15] it was “Compound NOT metabolized”; in series [16], “Compound metabolized”; in [17], “Compound NOT metabolized”; in series [18], “Compound metabolized”. For the same compound, the “Bacterial Biotransformation” value in [19], in series [20], in series [21], in series [22], in series [23] and in series [24] was “Compound NOT metabolized” throughout.

`C[C@]12C=CC(=O)C=C1CC[C@@H]1[C@@H]2C(=O)C[C@@]2(C)[C@H]1CC[C@]2(O)C(=O)CO` [PREDNISONE]: the “Bacterial Biotransformation” value in series [1] is recorded as “Compound metabolized”; in [2], “Compound metabolized”; in series [3], “Compound NOT metabolized”; in series [4], “Compound NOT metabolized”; in series [5], “Compound metabolized”; in series [6], “Compound NOT metabolized”. In addition, the “Bacterial Biotransformation” value is recorded as “Compound NOT metabolized” in series [7]; “Compound metabolized” in [8]; “Compound NOT metabolized” in series [9]; “Compound NOT metabolized” in [10]; “Compound metabolized” in series [11]; “Compound NOT metabolized” in series [12]. Also, the “Bacterial Biotransformation” value in [13] was “Compound metabolized”; in series [14], “Compound NOT metabolized”; in [15] it was “Compound NOT metabolized”; in series [16], “Compound metabolized”; in series [17], “Compound NOT metabolized”; in series [18], “Compound metabolized”. The “Bacterial Biotransformation” value in [19], in [20], in series [21], in [22], in series [23] and in [24] was “Compound NOT metabolized” in each case.
